Laboratory results from US20100159030A1, “METHODS FOR DETECTING AND MODULATING THE SENSITIVITY OF TUMOR CELLS TO ANTI-MITOTIC AGENTS AND FOR MODULATING TURMORGENICITY” (NewSouth Innovations Pty Limited, priority 2007, published 2010).
Counter-ions that a name gives are not always drawn. Like-named read-outs stand apart in the source and are kept apart here.

Columns and labels:
NSCLC H460 cells = assay: Drug-treated clonogenic assay (surviving fraction, ID50) on siRNA/shRNA-transfected cells; format: cell-based, Human; settings: for change in drug sensitivity (clonogenic survival): H460; for IC50: Homo sapiens; for RS (relative sensitivity): Table 2
Description: (§1) Cells were transfected for 24 h and approximately 600 cells (for Calu-6) or 150 cells (for H460) were seeded into each well of a 6-well plate and allowed to attach for 4-6 h. The cell lines used in this study were not subject to prior drug selection, and are likely to represent intrinsic drug resistance observed in lung carcinoma.
(§2) Cells were then treated with increasing concentrations of various anti-mitotic drugs. Following a 3-day incubation at 37° C., the drug-containing medium was removed and replaced with fresh complete medium. Medium was changed at 3-4 day intervals for 7 to 10 days until visible colonies formed. […] Surviving colonies were simultaneously fixed and stained with 0.5% crystal violet in methanol, rinsed with water to remove excess stain and air-dried overnight.
(§3) The colonies in each well were manually counted, and the results were presented as surviving fraction according to the formula: surviving fraction was calculated as follows: colony number/(number of cells seeded×plating efficiency), where plating efficiency is equivalent to the colony number divided by the number of cells seeded in the drug-free medium. Dose-response curves were plotted for each drug-cell line combination and inhibitory dose (ID50) values were extrapolated from this curve using GraphPad Prism program (GraphPad Software, version 4, San Diego, Calif.). ID50 was defined as the concentration of the drug required to reduce the number of colonies in drug-treated wells to 50% of that of the relevant untreated control wells. The ID50 values were the means of at least four independent experiments.
(§4) To quantitate any change in drug sensitivity, drug treated clonogenic assays were performed. Twenty-four hours after siRNA transfection, cells were harvested and plated into 6-well plates for 6 h, prior to the addition of various drugs as indicated in the figure legends. After 72 h incubation, the drug-containing media was removed and replaced with complete growth media. Medium was changed every 3 days for 7 to 10 days until visible colonies formed. Colonies were simultaneously fixed and stained with 0.5% crystal violet in methanol, and manually counted. Individual stained colonies in each well were counted and the surviving fraction was calculated as follows: colony number/(number of cells seeded×plating efficiency), where plating efficiency equals the colony number divided by the number of cells seeded in drug-free media.

CCRF-CEM Leukaemia cells = format: cell-based; settings: for cross-resistance: lowest resistant subline CEM/2ME2-3.6R only; for cross-resistance of the 2ME2-resistant cells: 2ME2-resistant sublines
From the text: The tubulin-binding agent 2-methoxyestradiol (2ME2) binds to β-tubulin near the colchicine-binding site, inhibits microtubule polymerization, and induces mitotic arrest. CCRF-CEM Leukaemia cells that display increasing resistance to 2ME2 were selected, and four of the highly 2ME2 resistant leukaemia sublines were chosen for detailed analysis.

Calu-6 cells [1] = assay: Drug-treated clonogenic assay on siRNA-transfected cells; format: cell-based, Human
Description: as §1, §2, §3, §4

H460 cells = assay: Cell cycle analysis by flow cytometry (propidium iodide); format: cell-based, Human; settings: 24 h
Description: The distribution of DNA content in βII or βIVb tubulin siRNA-transfected H460 cells was determined by flow cytometry. After 72 h transfection, transfected cells were exposed to vincristine at 5 nM or 40 nM concentrations for 24 h. On the day of analysis, both adherent and floating cells were harvested, washed with PBS and then stained with a solution containing 0.4% Triton® X-100 (Sigma), 50 μg/ml propidium iodide (Sigma), and 2 μg/ml DNase-free RNase (Roche, Indianapolis, Ind.) in the dark for 15 min at 37′C. DNA content was measured by a FACSCalibur flow cytometer (Becton Dickinson, San Diego, Calif.). The flow rate was <200 nuclei per second and 10,000 cells from each sample were analysed. Measurements were performed under the same instrumental settings. The CellQuest® program was used to quantitate the distribution of cells in each cell cycle phase: sub-G1 (apoptotic cells), G1, S and G2/M.
To determine whether βIII-tubulin silencing affects the cell cycle profiles, cell cycle analysis using flow cytometry was performed. Cell cycle analysis was determined by transfecting H460 cells with siRNA for 72 h and harvesting (adherent and suspension) cells 24 h after drug treatment. DNA content was stained for 15 min at 37° C. with a solution containing 0.4% Triton® X-100 (Sigma-Aldrich), 50 μg/ml propidium iodide (Sigma-Aldrich), and 2 μg/ml DNAse-free RNAse (Roche, Indianapolis, Ind.). The cells were then analyzed for cell cycle perturbation using a FACSCalibur (Becton-Dickinson, Franklin Lakes, N.J.). The CellQuest® program was used to quantitate the distribution of cells in each cell cycle phase: sub-G1(apoptotic cells), G1, S and G2/M.

Calu-6 cells [2] = assay: Immunofluorescent staining of microtubules (α-tubulin) after drug treatment; format: cell-based, Human; settings: 1 h, vs control
Description: Transfected Calu-6 cells were grown on sterile chamber slides until 60-70% confluent. Cells were then treated with paclitaxel and vincristine for 1 h at 10 nM. Cells were fixed in methanol and processed for staining as previously described (Don et al. (2004) supra) with minor modifications. Fixed cells were stained with α-tubulin (1:400 in 5% FCS/PBS, Sigma) for 30 min followed by Cy2 anti-mouse fluorescent tagged antibody (1:1,000 in 5% FCS/PBS, GE Healthcare). Slides were mounted on a coverslip using DAPI II Counterstain (Vysis Inc., Downers Grove, Ill.). Slides were viewed using a Zeiss Axioplan 2 Immunofluorescence Microscope (Mannheim, Germany) with Image-Pro® Plus 4.1 software (Media Cybernetics, L.P., Silver Spring, Md.).
To assess the effects of βIII downregulation on microtubule organization, immunofluorescence staining was performed on transfected Calu-6 cells as follows. Briefly, siRNA transfected cells were plated in glass chamber slides and allowed to reach 70% confluence. Cells were then treated with 10 nM of paclitaxel or vincristine for 1 hour. Drug was then removed by washing cells with PBS and blocked in 10% FCS/PBS. For dual staining, cells were first labelled with an antibody to class III β-tubulin which was exposed to cells incubated at 37° C. for 30 minutes in a humidified chamber. Following washes in 0.1% Tween 20/PBS at room temperature, the slides were incubated with Cy3 anti-mouse fluorescent-tagged antibody (GE Healthcare) for 40 minutes in a humidified chamber in the dark at room temperature. Following incubation, the slides were washed again in 0.1% Tween 20/PBS. This was then followed by staining with α-tubulin and Cy2 anti-mouse fluorescent tagged antibody (GE Healthcare). Slides were mounted on a coverslip using DAPI II Counterstain (Vysis Inc., Downers Grove, Ill.). Immunofluorescence microscopy was performed and images were captured using a Sensicam Charged Coupled Device camera (PCO Imaging, Kelheim, Bavaria, Germany) and the Image-Pro® Plus 4.1 software (Media Cybernetics, L.P., Silver Spring, Md.).

[3] = class II β-tubulin siRNA knockdown vs controls
[4] = class IVb β-tubulin siRNA knockdown vs controls
[5] = βIII-tubulin siRNA silencing vs controls
[6] = NCI-H460, Table 1A, control siRNA-transfected H460 cells, read-out: ID50 (the source's name)
[7] = NCI-H460, Table 1A, mock-transfected H460 cells, read-out: ID50 (the source's name)
[8] = NCI-H460, Table 1A, βII siRNA-transfected H460 cells, read-out: ID50 (the source's name)
[9] = NCI-H460, Table 1B, control siRNA-transfected H460 cells, read-out: ID50 (the source's name)
[10] = NCI-H460, Table 1B, mock-transfected H460 cells, read-out: ID50 (the source's name)
[11] = NCI-H460, Table 1B, βIVb siRNA-transfected H460 cells, read-out: ID50 (the source's name)

COc1cc2c(cc1O)CC[C@@H]1[C@@H]2CC[C@]2(C)[C@@H](O)CC[C@@H]12 [2ME2, 2-methoxyestradiol]
change in drug sensitivity (clonogenic survival) (NSCLC H460 cells; [3]): significantly increased sensitivity

CC[C@]1(O)C[C@H]2CN(CCc3c([nH]c4ccccc34)[C@@](C(=O)OC)(c3cc4c(cc3OC)N(C=O)[C@H]3[C@@](O)(C(=O)OC)[C@H](OC(C)=O)[C@]5(CC)C=CCN6CC[C@]43[C@@H]65)C2)C1 [VCR, vincristine]
cross-resistance (CCRF-CEM Leukaemia cells): cross-resistance
change in drug sensitivity (clonogenic survival) (Calu-6 cells [1]; [3]): significantly sensitized
change in drug sensitivity (clonogenic survival) (Calu-6 cells [1]; [4]): hypersensitive
cell cycle profile (H460 cells; βII siRNA transfectants, 5 nM): increase in the G2/M and sub-G1 populations
cell cycle profile (H460 cells; βII siRNA transfectants, 40 nM): greater G2/M accumulation
cell cycle profile (H460 cells; βIVb siRNA transfectants, 5 nM): increase in the G2/M and sub-G1 populations
cell cycle profile (H460 cells; βIVb siRNA transfectants, 40 nM): failed to undergo G2/M arrest
IC50 (NSCLC H460 cells; NCI-H460, Table 2, 27-mer βIII siRNA Sequence-8 H460 cells, read-out: ID50 ± SEM): 1.68 ± 0.116 nM
IC50 (NSCLC H460 cells; NCI-H460, Table 2, 27-mer βIII siRNA Sequence-11 H460 cells, read-out: ID50 ± SEM): 2.95 ± 0.175 nM
IC50 (NSCLC H460 cells; NCI-H460, Table 2, Ctrl-1 (27-mer control siRNA) H460 cells, read-out: ID50 ± SEM): 4.25 ± 0.18 nM
IC50 (NSCLC H460 cells; NCI-H460, Table 2, mock-transfected H460 cells, read-out: ID50 ± SEM): 3.99 ± 0.158 nM
RS (relative sensitivity) (NSCLC H460 cells; 27-mer βIII siRNA Sequence-8 H460 cells): (2.37, <0.0001***)
RS (relative sensitivity) (NSCLC H460 cells; 27-mer βIII siRNA Sequence-11 H460 cells): (1.34, 0.001**)
RS (relative sensitivity) (NSCLC H460 cells; Ctrl-1 H460 cells): (0.94, NS)
change in drug sensitivity (clonogenic survival) (NSCLC H460 cells; [3]): significantly sensitized
change in drug sensitivity (clonogenic survival) (NSCLC H460 cells; [4]): precipitous drop in surviving colonies
change in drug sensitivity (clonogenic survival) (NSCLC H460 cells; [5]): significant increase in sensitivity
microtubule morphology (Calu-6 cells [2]; βII siRNA-transfected Calu-6, 10 nM drug): dramatic disruption of the microtubule cytoskeleton
microtubule morphology (Calu-6 cells [2]; βIII siRNA-transfected Calu-6, 10 nM drug): extensive disruption of the microtubule cytoskeleton
microtubule morphology (Calu-6 cells [2]; βIVb siRNA-transfected Calu-6, 10 nM drug): dramatic disruption of the microtubule cytoskeleton

COc1cc([C@@H]2c3cc4c(cc3[C@@H](O[C@@H]3O[C@@H]5CO[C@@H](C)O[C@H]5[C@H](O)[C@H]3O)[C@H]3COC(=O)[C@H]23)OCO4)cc(OC)c1O [VP-16, Etoposide]
change in drug sensitivity (clonogenic survival) (NSCLC H460 cells; [5]): increased sensitivity

CC[C@]1(O)C[C@@H]2CN(CCc3c([nH]c4ccccc34)[C@@](C(=O)OC)(c3cc4c(cc3OC)N(C)[C@H]3[C@@](O)(C(=O)OC)[C@H](OC(C)=O)[C@]5(CC)C=CCN6CC[C@]43[C@@H]65)C2)C1 [Vinblastine, vinblastine]
IC50 (NSCLC H460 cells; [6]): 0.749 nM
IC50 (NSCLC H460 cells; [7]): 0.658 nM
IC50 (NSCLC H460 cells; [8]): 0.437 nM
IC50 (NSCLC H460 cells; [9]): 0.615 nM
IC50 (NSCLC H460 cells; [10]): 0.674 nM
IC50 (NSCLC H460 cells; [11]): 0.173 nM

CC[C@]12C=CCN3CC[C@@]4(c5cc([C@@]6(C(=O)OC)C[C@@H]7C[C@@H](C(C)(F)F)CN(Cc8c6[nH]c6ccccc86)C7)c(OC)cc5N(C)[C@H]4[C@@](O)(C(=O)OC)[C@@H]1OC(C)=O)[C@@H]32 [Vinflunine, vinflunine]
IC50 (NSCLC H460 cells; [6]): 29.9 nM
IC50 (NSCLC H460 cells; [7]): 31 nM
IC50 (NSCLC H460 cells; [8]): 19 nM
IC50 (NSCLC H460 cells; [9]): 30.5 nM
IC50 (NSCLC H460 cells; [10]): 31.7 nM
IC50 (NSCLC H460 cells; [11]): 19.2 nM

CCC1=C[C@@H]2CN(C1)Cc1c([nH]c3ccccc13)[C@@](C(=O)OC)(c1cc3c(cc1OC)N(C)[C@H]1[C@@](O)(C(=O)OC)[C@H](OC(C)=O)[C@]4(CC)C=CCN5CC[C@]31[C@@H]54)C2 [Vinorelbine, vinorelbine]
change in drug sensitivity (clonogenic survival) (Calu-6 cells [1]; [5]): enhanced sensitivity
IC50 (NSCLC H460 cells; [6]): 5.78 nM
IC50 (NSCLC H460 cells; [7]): 6.34 nM
IC50 (NSCLC H460 cells; [8]): 4.04 nM
IC50 (NSCLC H460 cells; [9]): 6.52 nM
IC50 (NSCLC H460 cells; [10]): 6.95 nM
IC50 (NSCLC H460 cells; [11]): 5.43 nM
change in drug sensitivity (clonogenic survival) (NSCLC H460 cells; [5]): enhanced sensitivity

COc1cc2c(c(OC)c1OC)-c1ccc(OC)c(=O)cc1[C@@H](NC(C)=O)CC2 [colchicine]
cross-resistance of the 2ME2-resistant cells (CCRF-CEM Leukaemia cells): not cross resistant
cross-resistance (CCRF-CEM Leukaemia cells): cross-resistance
change in drug sensitivity (clonogenic survival) (NSCLC H460 cells; [3]): significantly increased sensitivity

COc1cccc2c1C(=O)c1c(O)c3c(c(O)c1C2=O)C[C@@](O)(C(=O)CO)C[C@@H]3O[C@H]1C[C@H](N)[C@H](O)[C@H](C)O1 [doxorubicin, doxorubicin hydrochloride]
change in drug sensitivity (clonogenic survival) (NSCLC H460 cells; [5]): increased sensitivity

C/C(=C\c1csc(C)n1)[C@@H]1C[C@@H]2O[C@]2(C)CCC[C@H](C)[C@H](O)[C@@H](C)C(=O)C(C)(C)[C@@H](O)CC(=O)O1 [epothilone B]
cross-resistance of the 2ME2-resistant cells (CCRF-CEM Leukaemia cells): hypersensitive
change in drug sensitivity (clonogenic survival) (Calu-6 cells [1]; [5]): increased the sensitivity
change in drug sensitivity (clonogenic survival) (NSCLC H460 cells; [3]): no significant change in drug sensitivity
change in drug sensitivity (clonogenic survival) (NSCLC H460 cells; [4]): significantly more resistant
change in drug sensitivity (clonogenic survival) (NSCLC H460 cells; [5]): increased the sensitivity
